Measured values from ChEMBL document CHEMBL3507680, “University of Dundee, Gates Library screen for HepG2 cell viability”.

assay: Human HepG2 cell viability assay in 384 well format; type: toxicity, cell-based; parameters: dose 125 nL, time 70.5 hour; cytotoxicity at 70.5 h: concentration not given beside the values; settings: HepG2 cells, read-out: Inhibition

SMILES	cytotoxicity at 70.5 h [%]
CCNC(=O)[C@@H]1CN(Cc2ccccc2)C[C@H]1C(=O)c1ccc(F)cc1	-0.813
COc1ccccc1OCCN(C)Cc1c(C2CC2)[nH]c2ncccc12	20.9
CN(CCc1ccccc1)Cc1c(C2CCOCC2)[nH]c2ncccc12	-2.01
CC(C)NC(=O)C1(Cc2ccccc2-c2ccccc2)CCCNC1 (stereo unspecified)	-1.97
Cc1cccc(CN2CCOCC2c2[nH]ncc2C)n1 (stereo unspecified)	-2.39
CN1CCCC1CCNC(=O)c1ccccc1-n1cnc(CN)c1 (stereo unspecified)	0.899
Cc1nc(CC(=O)N2CCc3nc(-c4cnccn4)nc(O)c3C2)cs1	12.3
O=C(NC(Cc1ccsc1)c1nccs1)C1CC1 (stereo unspecified)	-6.11
O=C1NCC2(CCCN(Cc3cccnc3)C2)Oc2ccccc21 (stereo unspecified)	-7.07
C=Cc1ccc(CN2CCCC3(CNC(=O)c4ccccc4O3)C2)cc1 (stereo unspecified)	8.95
Cn1nc(C2CCN(C(=O)c3cccs3)CC2)c2cccnc21	-4.94
COc1cccc(CC(=O)N2CCCC(c3n[nH]c4nccnc34)C2)c1 (stereo unspecified)	-10.4
Fc1cccc(Cl)c1CN1CCC(c2n[nH]c3ncccc23)CC1	13.7
Cc1ccc(CN2CCCC(c3nn(C)c4nccnc34)C2)s1 (stereo unspecified)	9.04
O=C(Cc1ccsc1)N1CCC(c2n[nH]c3nccnc23)CC1	-8.21
Cc1csc(C(Cc2ccsc2)NC(=O)Cn2cccnc2=O)n1 (stereo unspecified)	14.5
CCc1nc2ccccc2c(=O)n1CC1(O)CCN(CC(=O)OC)CC1	-10.9
O=C(Cn1cccnc1=O)NC(Cc1ccsc1)c1cccnc1 (stereo unspecified)	-6.19
CC(C)Oc1ccc(CN2CCC(c3n[nH]c4ncccc34)CC2)cc1	21.4
COCCNC(=O)c1cc(S(=O)(=O)N2CCCCCC2)cs1	15.3
Cc1nc(C2CCCN(C(=O)c3ccncc3)C2)c2sccn12 (stereo unspecified)	21.5
Cc1cnccc1CN1Cc2ccccc2O[C@]2(CC[C@H](CO)CC2)C1	15.1
Cc1cc(-c2cnn(CCNC(=O)CCn3cccn3)c2C2CC2)on1	-3.81
Cc1nc(C2CCN(C(=O)c3cnc(N(C)C)nc3)CC2)c2sccn12	1.86

SMILES	cytotoxicity at 70.5 h [%]
COCCNCc1cc2c(C)cc(C)cc2n2c(=O)n(C)nc12	2.41
CCOCCCNCc1cc2c(C)cc(C)cc2n2c(=O)n(C)nc12	-0.158
Cc1cccnc1C(Cc1ccsc1)NC(=O)Cn1cccnc1=O (stereo unspecified)	-1.07
C=Cn1ncc(CN2C[C@@H]3C[C@@H](O)CN3C[C@H]2Cc2ccccc2)c1C	-5.5
CS(=O)(=O)N1CCCC(Cc2cncc(Br)c2)CC1 (stereo unspecified)	-2.69
CC(=O)N1CCCC(Cc2cncc(Br)c2)C1 (stereo unspecified)	-1.98
CN1CCC(Cc2cccc(-c3cc(F)ccc3C(=O)O)n2)CC1	-4.18
CC(C)N1CCC(Cc2cc(-c3cc(F)ccc3C(=O)O)ncn2)C1 (stereo unspecified)	-3
Cn1nc(C2CN(S(C)(=O)=O)C2)c2nccnc21	3.57
CN1CCCC(CCCc2cccnc2)(C(N)=O)C1 (stereo unspecified)	-3.41
CC(C)Oc1ccc(C(=O)N2CC[C@H](O)[C@@H](n3ccnc3)CC2)cc1	18.5
Cc1ncoc1C(=O)N1CC[C@@H](O)[C@@H](O)[C@H](N2CCC(F)(F)CC2)C1	-2.42
CNc1cccc(C2CCN(C(=O)c3cccnc3)CC2)n1	-5.08
Cc1cc(-c2ccccc2C(=O)O)nc(C2CCCN(C(C)C)C2)n1 (stereo unspecified)	-3.8
Cc1cc(C(=O)N2CCCC2c2nc(O)cc(C(C)C)n2)on1 (stereo unspecified)	-5.06
Cc1nc(Nc2ccccn2)cc(C2CCCN2Cc2ncc[nH]2)n1 (stereo unspecified)	-6.09
Cc1cc(-c2cccc(C(=O)O)c2)nc(C2CCN(C(C)C)CC2)n1	-3.8
CC(C)N1CCC(Cc2cc(-c3cccc(C(=O)O)c3)ncn2)CC1	-4.63
CC(C)C(=O)N1CCC(Cc2nccnc2Nc2ccccn2)CC1	-5.25
CC(=O)N1CCCC(c2ccc3sc(N)nc3n2)C1 (stereo unspecified)	-8.18
O=C(c1ccncc1)N1CCC(Cc2cnc3[nH]ccc3c2)CC1	-5.49
CNc1cccc(C2CCCN(C(=O)c3ccn(C)n3)C2)n1 (stereo unspecified)	16.5
O=C(Cc1ccc2c(c1)CCCC2)N[C@@H]1CC[C@@H](n2ccnc2)[C@@H]1O	-3.88
Cc1cc(-c2ccccc2C(=O)O)nc(C2CCCN(C)C2)n1 (stereo unspecified)	-7.61

SMILES	cytotoxicity at 70.5 h [%]
Cc1ccccc1CNC(=O)c1ccccc1-n1cnc(CN)c1	-0.745
O=C(c1ccccn1)N1CCC(Cc2cnc3[nH]ccc3c2)CC1	-6.64
COc1ccccc1-c1nccnc1C1CCN(C(C)=O)CC1	-6.14
COCC(=O)N1CCOC(c2cccc(-c3cncnc3)n2)C1 (stereo unspecified)	-5.56
CC(C)N1CCCC(Cc2cncc(Br)c2)CC1 (stereo unspecified)	-4.98
Cc1ccccc1-c1cncc(C2CCN(CCO)CC2)n1	-8.45
CCc1cc(O)nc(C2CCCN2C(=O)COC)n1 (stereo unspecified)	-5.06
Cc1ncsc1-c1nnc(C2CCN(Cc3cccc(F)c3F)CC2)o1	38.7
CC(=O)N1CCCC1c1nc(C)no1 (stereo unspecified)	15.6
CC(C)CC(=O)N1CCCC1c1nccnc1Nc1ncccn1 (stereo unspecified)	29.4
CN(C)S(=O)(=O)N1CCC(c2cccc(Cc3ccccc3Cl)n2)CC1	18.2
Cc1ccc(CC2CCCN(S(C)(=O)=O)C2)nc1 (stereo unspecified)	-9.35
CCC(=O)N1CCCC(c2ncc3c(n2)CCN(C)C3)C1 (stereo unspecified)	-8.89
CNc1cc(CNC(=O)c2ccncc2)nc(-c2ccncc2)n1	-2.12
CNc1cc(CNC(=O)c2ccnc(OC)c2)nc(-c2ccncc2)n1	11.8
Cc1cc(C)nc(N2CCCC(c3cccc(-n4ccnc4)n3)C2)n1 (stereo unspecified)	-5.86
NC[C@H]1CC[C@H](C(NC(=O)CC2CCCCC2)c2ccccn2)CC1 (stereo partly specified)	-6.94
Cc1cc(C)nc(N2CCC(c3cncc(-n4ccnc4)n3)CC2)n1	-6.63
CC(=O)N1CCC(c2cc(C(F)(F)F)nc3nccn23)CC1	-8.29
COCCN1CCCC1c1nccnc1Nc1nccs1 (stereo unspecified)	-4.09
COCCN1CCCC1c1nccnc1Nc1ncc(C)s1 (stereo unspecified)	-1.57
Cc1ncncc1C(=O)N1CCCC(c2[nH]ncc2S(C)(=O)=O)C1 (stereo unspecified)	-6.13
CO[C@H]1CN(Cc2ccc(F)c(F)c2)C[C@@]12CCCO2	-2.35
C[C@]1(O)CCN(Cc2cccnc2)C[C@@H]1Oc1cccc(F)c1	-2.19

SMILES	cytotoxicity at 70.5 h [%]
Cn1cccc1C(=O)N1CCC(O)(CN2CCc3ccccc3C2)C1 (stereo unspecified)	-4.98
Cc1cc2cc(C(=O)N[C@@H]3CC[C@@H](N4CCNC(=O)C4)[C@@H]3O)ccc2o1	-7.85
CCN(CC)S(=O)(=O)NCC1Cc2ccccc2O1 (stereo unspecified)	-3.76
O=C(COCC1CCCO1)N(Cc1cccnc1)c1ccc(F)cc1 (stereo unspecified)	2.18
CCN(C)Cc1cccc(CNC(=O)CSCc2ccncc2)c1	-6.72
CC(C(=O)NCC(C)(C)c1ccc(Br)cc1)n1cncn1 (stereo unspecified)	-12.2
Cc1nn(C)c(C)c1CCC(=O)NCC1(C(N)=O)CCOCC1	-17.6
Cc1nc(C)n(CC2CCCN2c2ncnc3sc(C)c(C)c23)n1 (stereo unspecified)	-3.31
Cc1ncc2c(n1)CN(Cc1nc(-c3ccco3)oc1C)CC2	-10.5
Cc1nc(NCc2nnc(C)n2C)c2c(CC(C)C)csc2n1	0.805
CCC(C#N)NC(=O)c1sccc1OC (stereo unspecified)	-10.7
COC(=O)CCN(C)C(=O)c1csc(Cc2ccccc2F)n1	0.501
CC1(C)CN(Cc2ccncc2)CCS1(=O)=O	24.1
CN(C)CC(O)Cn1cc(NCc2ccc(Br)cc2)cn1 (stereo unspecified)	-2.01
N#Cc1ccc(Cl)cc1NCC1CCOC1 (stereo unspecified)	-1.84
CS(=O)(=O)CCCNc1cccc(COC2CCCCC2)c1	-12.7
Cc1ccc(CN2CCS(=O)(=O)C(C)(C)C2)cc1C	20.3
CCCSCC(=O)NCc1cccc(CN(C)CC)c1	-9.96
COc1ccc(CNC(C)c2cnn(C)c2)cc1OC1CCCC1 (stereo unspecified)	-3.45
Cc1ccc(=O)n(Cc2csc(N(C)C3CC3)n2)n1	-10.2
COc1ccc(Cl)cc1CS(=O)(=O)Cc1nc(C2CC2)no1	-5.91
N#Cc1ccc(F)c(CN2CCc3sccc3C2)c1	-5.04
Cc1ccc(C(=O)NC(C)Cn2cccn2)c(=O)[nH]1 (stereo unspecified)	8.15
Cc1ccc(C(=O)NCC(C)Cn2cccn2)c(=O)[nH]1 (stereo unspecified)	-3.38

SMILES	cytotoxicity at 70.5 h [%]
CC1CN(C(=O)c2cnn(-c3ccccn3)c2C(C)C)CC(C)(C)O1 (stereo unspecified)	-4.17
COc1c(Cl)cc(C(=O)NCc2n[nH]c(C)n2)cc1Cl	2.06
CCc1c(C(=O)N2CC(C)OC(C)(C)C2)cnn1-c1ccccn1 (stereo unspecified)	-4.53
Cc1[nH]nc2ncc(C(=O)N3CCN(C(C)(C)C)CC3)cc12	-0.02
Cc1nnc2n1CCN(Cc1nc3ccccc3o1)C2	-3.32
COc1ccc(Cl)cc1CS(=O)(=O)Cc1noc(C)n1	12.6
CCc1nnc2n1CCN(c1nc3ccccc3o1)C2	-7.72
Cc1nnc2n1CCN(c1nc3ccccc3o1)C2	1.55
Cc1noc(C(C)Nc2ccc3oc(=O)[nH]c3c2)n1 (stereo unspecified)	-0.467
COc1ccccc1C(=O)NCc1n[nH]c(C)n1	0.0224
Cc1nn(C)c(C)c1C1CCCN1Cc1nnc(C2CC2)n1C (stereo unspecified)	-1.77
Cc1[nH]nc2ncc(C(=O)N3CCN(CC(C)(C)O)CC3)cc12	-0.78
O=C(CC1OCCc2ccccc21)NCCn1cccc1 (stereo unspecified)	-4.75
N#CC(NC(=O)c1cccc2c1OCCO2)c1ccc(F)cc1F (stereo unspecified)	-4.12
Cn1nc(C2CCCN(Cc3ccc(F)cc3)C2)c2nccnc21 (stereo unspecified)	5.25
Cn1nc(C2CCCN(Cc3cccs3)C2)c2nccnc21 (stereo unspecified)	3.16
Cn1nc(C2CCCN(Cc3cc(F)ccc3F)C2)c2nccnc21 (stereo unspecified)	-2.84
Cc1ccc(CN(CCN(C)C)Cc2c(C)nc3sccn23)o1	6.95
Fc1ccc(OCCCNC2=NCCCN2)cc1	-5.27
c1ccc(OCCNC2=NCCCN2)cc1	24.2
